Measurements published in patent US11427549B2, “Pyrimidinyloxy benzo-fused compounds as herbicides” (FMC Corporation, priority 2017, dated 2022).

How the values were obtained:
[1] = system: pigweed (Amaranthus retroflexus); assay: Test A postemergence, pigweed; type: in vivo; details: Amaranthus retroflexus, post-emergence, 240 h, 0 to 100 scale (0 no effect, 100 complete control), read-out: Plant response rating, Pigweed; for pest or weed control at 31 g/ha: 31 g ai/ha; for pest or weed control at 125 g/ha: 125 g ai/ha
corn (Zea mays) = assay: Test A postemergence, corn; type: in vivo; details: Zea mays, post-emergence, 240 h, 0 to 100 scale (0 no effect, 100 complete control); for Corn plant response rating (crop injury, 0 = no effect, 100 = complete kill) at 31 g/ha: 31 g ai/ha; for Corn plant response rating (crop injury, 0 = no effect, 100 = complete kill) at 125 g/ha: 125 g ai/ha
[2] = system: blackgrass (Alopecurus myosuroides); assay: Test A postemergence, blackgrass; type: in vivo; details: Alopecurus myosuroides, post-emergence, 240 h, 0 to 100 scale (0 no effect, 100 complete control), read-out: Plant response rating, Blackgrass; for pest or weed control at 31 g/ha: 31 g ai/ha; for pest or weed control at 125 g/ha: 125 g ai/ha
[3] = system: galium (catchweed bedstraw, Galium aparine); assay: Test A postemergence, galium; type: in vivo; details: Galium, post-emergence, 240 h, 0 to 100 scale (0 no effect, 100 complete control), read-out: Plant response rating, Galium; for pest or weed control at 31 g/ha: 31 g ai/ha; for pest or weed control at 125 g/ha: 125 g ai/ha
[4] = system: ryegrass, Italian (Italian ryegrass, Lolium multiflorum); assay: Test A postemergence, ryegrass, Italian; type: in vivo; details: Lolium multiflorum, post-emergence, 240 h, 0 to 100 scale (0 no effect, 100 complete control), read-out: Plant response rating, Ryegrass, Italian; for pest or weed control at 31 g/ha: 31 g ai/ha; for pest or weed control at 125 g/ha: 125 g ai/ha
[5] = system: ragweed (common ragweed, Ambrosia elatior); assay: Test A preemergence, ragweed; type: in vivo; details: Ambrosia artemisiifolia, pre-emergence, 240 h, 0 to 100 scale (0 no effect, 100 complete control), read-out: Plant response rating, Ragweed; for pest or weed control at 31 g/ha: 31 g ai/ha; for pest or weed control at 125 g/ha: 125 g ai/ha
[6] = system: barnyardgrass (Echinochloa crus-galli); assay: Test A postemergence, barnyardgrass; type: in vivo; details: Echinochloa crus-galli, post-emergence, 240 h, 0 to 100 scale (0 no effect, 100 complete control), read-out: Plant response rating, Barnyardgrass; for pest or weed control at 31 g/ha: 31 g ai/ha; for pest or weed control at 125 g/ha: 125 g ai/ha
[7] = system: barnyardgrass (Echinochloa crus-galli); assay: Test B flooded paddy test, barnyardgrass; details: Echinochloa crus-galli, read-out: Plant response rating, Barnyardgrass (0 to 100 scale, 0 is no effect, 100 is complete control)
[8] = system: barnyardgrass (Echinochloa crus-galli); assay: Test A preemergence, barnyardgrass; type: in vivo; details: Echinochloa crus-galli, pre-emergence, 240 h, 0 to 100 scale (0 no effect, 100 complete control), read-out: Plant response rating, Barnyardgrass; for pest or weed control at 31 g/ha: 31 g ai/ha; for pest or weed control at 125 g/ha: 125 g ai/ha
[9] = system: foxtail, green (green foxtail, Setaria viridis); assay: Test A postemergence, foxtail, green; type: in vivo; details: Setaria, post-emergence, 240 h, 0 to 100 scale (0 no effect, 100 complete control), read-out: Plant response rating, Foxtail, Green; for pest or weed control at 31 g/ha: 31 g ai/ha; for pest or weed control at 125 g/ha: 125 g ai/ha
[10] = system: ryegrass, Italian (Italian ryegrass, Lolium multiflorum); assay: Test A preemergence, ryegrass, Italian; type: in vivo; details: Lolium multiflorum, pre-emergence, 240 h, 0 to 100 scale (0 no effect, 100 complete control), read-out: Plant response rating, Ryegrass, Italian; for pest or weed control at 31 g/ha: 31 g ai/ha; for pest or weed control at 125 g/ha: 125 g ai/ha
[11] = system: pigweed (Amaranthus retroflexus); assay: Test A preemergence, pigweed; type: in vivo; details: Amaranthus retroflexus, pre-emergence, 240 h, 0 to 100 scale (0 no effect, 100 complete control), read-out: Plant response rating, Pigweed; for pest or weed control at 31 g/ha: 31 g ai/ha; for pest or weed control at 125 g/ha: 125 g ai/ha
kochia (Kochia scoparia) [12] = assay: Test A preemergence, kochia; type: in vivo; details: Bassia scoparia, pre-emergence, 240 h, 0 to 100 scale (0 no effect, 100 complete control), read-out: Plant response rating, Kochia; for pest or weed control at 31 g/ha: 31 g ai/ha; for pest or weed control at 125 g/ha: 125 g ai/ha
kochia (Kochia scoparia) [13] = assay: Test A postemergence, kochia; type: in vivo; details: Bassia scoparia, post-emergence, 240 h, 0 to 100 scale (0 no effect, 100 complete control), read-out: Plant response rating, Kochia; for pest or weed control at 31 g/ha: 31 g ai/ha; for pest or weed control at 125 g/ha: 125 g ai/ha
[14] = system: ducksalad (Heteranthera limosa); assay: Test B flooded paddy test, ducksalad; details: Heteranthera limosa, read-out: Plant response rating, Ducksalad (0 to 100 scale, 0 is no effect, 100 is complete control)
rice (Oryza sativa) = assay: Test B flooded paddy test, rice; details: Oryza sativa, read-out: Plant response rating, Rice (0 to 100 scale, 0 is no effect, 100 is complete control)
[15] = system: wheat (Triticum aestivum); assay: Test A postemergence, wheat; type: in vivo; details: Triticum aestivum, post-emergence, 240 h, 0 to 100 scale (0 no effect, 100 complete control), read-out: Plant response rating, Wheat; for plant injury at 31 g/ha: 31 g ai/ha; for plant injury at 125 g/ha: 125 g ai/ha
[16] = system: ragweed (common ragweed, Ambrosia elatior); assay: Test A postemergence, ragweed; type: in vivo; details: Ambrosia artemisiifolia, post-emergence, 240 h, 0 to 100 scale (0 no effect, 100 complete control), read-out: Plant response rating, Ragweed; for pest or weed control at 31 g/ha: 31 g ai/ha; for pest or weed control at 125 g/ha: 125 g ai/ha

Compound	pest or weed control at 31 g/ha [1] [%]	pest or weed control at 125 g/ha [1] [%]	Corn plant response rating (crop injury, 0 = no effect, 100 = complete kill) at 31 g/ha (corn (Zea mays)) [%]	Corn plant response rating (crop injury, 0 = no effect, 100 = complete kill) at 125 g/ha (corn (Zea mays)) [%]	pest or weed control at 31 g/ha [2] [%]	pest or weed control at 125 g/ha [2] [%]	pest or weed control at 31 g/ha [3] [%]	pest or weed control at 125 g/ha [3] [%]	pest or weed control at 31 g/ha [4] [%]	pest or weed control at 125 g/ha [4] [%]	pest or weed control at 31 g/ha [5] [%]	pest or weed control at 125 g/ha [5] [%]	pest or weed control at 31 g/ha [6] [%]	pest or weed control at 125 g/ha [6] [%]	pest or weed control at 250 g/ha [7] [%]	pest or weed control at 31 g/ha [8] [%]	pest or weed control at 125 g/ha [8] [%]	pest or weed control at 31 g/ha [9] [%]	pest or weed control at 125 g/ha [9] [%]	pest or weed control at 31 g/ha [10] [%]	further results
FC(F)(F)CCCC1CCc2cccc(Oc3ncc(Cl)cn3)c21 (stereo not drawn) [Compound 9, 5-Chloro-2-[[2,3-dihydro-3-(4,4,4-trifluorobutyl)-1H-inden-4-yl]oxy]pyrimidine]	80	100	20	30	20	80	20	30	10	30	0	10	20	50	70	10	90	20	60	10	pest or weed control at 125 g/ha [10]: 50%; pest or weed control at 31 g/ha [11]: 10%; pest or weed control at 125 g/ha [11]: 100%; pest or weed control at 31 g/ha (kochia (Kochia scoparia) [12]): 10%; pest or weed control at 125 g/ha (kochia (Kochia scoparia) [12]): 50%; pest or weed control at 31 g/ha (kochia (Kochia scoparia) [13]): 50%; pest or weed control at 125 g/ha (kochia (Kochia scoparia) [13]): 80%; pest or weed control at 250 g/ha [14]: 100%; plant injury at 250 g/ha (rice (Oryza sativa)): 50%; plant injury at 31 g/ha [15]: 10%; plant injury at 125 g/ha [15]: 20%; pest or weed control at 31 g/ha [16]: 0%; pest or weed control at 125 g/ha [16]: 10%
OC1CC(CCCC(F)(F)F)c2c(Oc3ncc(Cl)cn3)cccc21 (stereo not drawn) [Compound 10, 4-[(5-Chloro-2-pyrimidinyl)oxy]-2,3-dihydro-3-(4,4,4-trifluorobutyl)-1H-inden-1-ol]	50	90	10	30	10	20	10	20	0	30	0	0	10	40	45	10	70	10	50	10	pest or weed control at 125 g/ha [10]: 30%; pest or weed control at 31 g/ha [11]: 100%; pest or weed control at 125 g/ha [11]: 100%; pest or weed control at 31 g/ha (kochia (Kochia scoparia) [12]): 0%; pest or weed control at 125 g/ha (kochia (Kochia scoparia) [12]): 30%; pest or weed control at 31 g/ha (kochia (Kochia scoparia) [13]): 10%; pest or weed control at 125 g/ha (kochia (Kochia scoparia) [13]): 60%; pest or weed control at 250 g/ha [14]: 95%; plant injury at 250 g/ha (rice (Oryza sativa)): 25%; plant injury at 31 g/ha [15]: 0%; plant injury at 125 g/ha [15]: 10%; pest or weed control at 31 g/ha [16]: 0%; pest or weed control at 125 g/ha [16]: 10%
